Assays:
human V1a receptor = human V1a receptor (Homo sapiens (Human), UniProt P37288); assay: Cellular in vitro assay for determining the vasopressin receptor activity (aequorin luminescence, CHO cells, antagonism of [Arg8]-vasopressin); assay type: cell-based; conditions: cell line transfected with the human V1a receptor; agonist [Arg8]-vasopressin; read-out: IC50 hV1a
Source text: (§1) • EDTA ethylenediaminetetraacetic acid • DMEM Dulbecco's Modified Eagle Medium • FCS foetal calf serum • HEPES 4-(2-hydroxyethyl)-1-piperazineethanesulphonic acid • SmGM Smooth Muscle Cell Growth Media • Tris-HCl 2-amino-2-(hydroxymethyl)-1,3-propanediol hydrochloride B-1. Cellular in vitro Assay for Determining the Vasopressin Receptor Activity
(§2) The identification of agonists and antagonists of the V1a and V2 vasopressin receptors from humans and rats and also the quantification of the activity of the compounds of the invention takes place using recombinant cell lines. […] In addition, the cells are stably transfected with the human or rat V1a or V2 receptors.
(§3) On the day before the assay, the cells are plated out in culture medium (DMEM, 10% FCS, 2 mM glutamine, 10 mM HEPES) in 384-well microtitre plates and kept in a cell incubator (96% humidity, 5% v/v CO2, 37° C.). On the day of the assay, the culture medium is replaced by a Tyrode solution (140 mM NaCl, 5 mM KCl, 1 mM MgCl2, 2 mM CaCl2, 20 mM glucose, 20 mM HEPES), which additionally contains the cofactor coelenterazine (50 μM), and the microtitre plate is then incubated for a further 3-4 hours. The test substances in various concentrations are placed for 10 to 20 minutes in the wells of the microtitre plate before the agonist [Arg^8]-vasopressin is added, and the resulting light signal is measured immediately in the luminometer.

human V2 receptor = human V2 receptor (Homo sapiens (Human), UniProt P30518); assay: as above; assay type: cell-based; conditions: cell line transfected with the human V2 receptor; agonist [Arg8]-vasopressin; read-out: IC50 hV2
Source text: as §1, §2, §3

human V1a receptor, sequence (P37288 whole entry): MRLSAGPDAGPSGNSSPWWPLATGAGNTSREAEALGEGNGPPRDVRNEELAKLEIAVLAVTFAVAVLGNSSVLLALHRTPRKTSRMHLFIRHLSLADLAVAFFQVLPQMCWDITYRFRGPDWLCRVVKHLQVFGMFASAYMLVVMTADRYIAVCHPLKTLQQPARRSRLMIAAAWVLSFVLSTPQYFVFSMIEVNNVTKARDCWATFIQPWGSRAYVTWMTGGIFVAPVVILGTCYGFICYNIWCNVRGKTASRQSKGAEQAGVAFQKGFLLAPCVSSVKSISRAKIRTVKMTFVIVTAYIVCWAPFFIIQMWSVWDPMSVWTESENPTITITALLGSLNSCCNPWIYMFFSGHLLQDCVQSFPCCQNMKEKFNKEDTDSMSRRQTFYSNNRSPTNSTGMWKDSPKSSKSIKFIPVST
human V2 receptor, sequence (P30518 whole entry): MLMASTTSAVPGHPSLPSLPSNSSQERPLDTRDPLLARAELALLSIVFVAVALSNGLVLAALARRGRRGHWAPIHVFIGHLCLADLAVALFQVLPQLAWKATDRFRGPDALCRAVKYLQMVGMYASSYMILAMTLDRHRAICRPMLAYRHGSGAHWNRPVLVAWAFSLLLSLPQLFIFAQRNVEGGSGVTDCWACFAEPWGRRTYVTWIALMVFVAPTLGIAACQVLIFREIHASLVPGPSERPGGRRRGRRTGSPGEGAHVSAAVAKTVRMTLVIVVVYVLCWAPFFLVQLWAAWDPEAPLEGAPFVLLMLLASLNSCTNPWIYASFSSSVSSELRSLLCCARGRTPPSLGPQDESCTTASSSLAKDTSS

## NC(=O)OC(CNC(=O)Cn1nc(-c2ccc(Cl)cc2)n(Cc2ccccc2F)c1=O)c1ccccc1Cl (racemic) [Example 57, 1-(2-Chlorophenyl)-2-({[3-(4-chlorophenyl)-4-(2-fluorobenzyl)-5-oxo-4,5-dihydro-1H-1,2,4-triazol-1-yl]acetyl}amino)ethyl carbamate]
Human V1a receptor
  IC50: 10 nM
Human V2 receptor
  IC50: 22 nM

## NC(=O)OC(CNC(=O)Cn1nc(-c2ccc(Cl)cc2)n(CCC(F)(F)F)c1=O)c1ccccc1Cl (racemic) [Example 59, 1-(2-Chlorophenyl)-2-({[3-(4-chlorophenyl)-5-oxo-4-(3,3,3-trifluoropropyl)-4,5-dihydro-1H-1,2,4-triazol-1-yl]acetyl}amino)ethyl carbamate]
Human V1a receptor
  IC50: 14 nM
Human V2 receptor
  IC50: 48 nM

## COCCn1c(-c2ccc(Cl)s2)nn(CC(=O)NCC(NC(=O)OC(C)(C)C)c2ccccc2C(F)(F)F)c1=O (racemic) [Example 66, tert-Butyl {2-({[3-(5-chloro-2-thienyl)-4-(2-methoxyethyl)-5-oxo-4,5-dihydro-1H-1,2,4-triazol-1-yl]acetyl}amino)-1-[2-(trifluoromethyl)phenyl]ethyl}carbamate]
Human V1a receptor
  IC50: 51 nM
Human V2 receptor
  IC50: 1200 nM

## CC(C)(C)OC(=O)NC(CNC(=O)Cn1nc(-c2ccc(Cl)s2)n(Cc2ccccc2F)c1=O)c1ccccc1C(F)(F)F (racemic) [Example 67, tert-Butyl {2-({[3-(5-chloro-2-thienyl)-4-(2-fluorobenzyl)-5-oxo-4,5-dihydro-1H-1,2,4-triazol-1-yl]acetyl}amino)-1-[2-(trifluoromethyl)phenyl]ethyl}carbamate]
Human V1a receptor
  IC50: 18 nM
Human V2 receptor
  IC50: 300 nM

## COCCn1c(-c2ccc(Cl)s2)nn(CC(=O)NCC(NS(C)(=O)=O)c2ccccc2C(F)(F)F)c1=O (racemic) [Example 69, 2-[3-(5-Chloro-2-thienyl)-4-(2-methoxyethyl)-5-oxo-4,5-dihydro-1H-1,2,4-triazol-1-yl]-N-{2-[(methylsulphonyl)amino]-2-[2-(trifluoromethyl)phenyl]ethyl}acetamide]
Human V1a receptor
  IC50: 130 nM
Human V2 receptor
  IC50: 3500 nM

## NC(=O)OCC(CNC(=O)Cn1nc(-c2ccc(Cl)cc2)n(C[C@H](O)C(F)(F)F)c1=O)c1ccccc1C(F)(F)F (single isomer, unassigned) [Example 2]
Human V1a receptor
  IC50: 1 nM
Human V2 receptor
  IC50: 16 nM

## NC(=O)OCC(CNC(=O)Cn1nc(-c2ccc(Cl)cc2)n(C[C@H](O)C(F)(F)F)c1=O)c1ccccc1Cl (single isomer, unassigned) [Example 6]
Human V1a receptor
  IC50: 12 nM

## NC(=O)OCC(CNC(=O)Cn1nc(-c2ccc(Cl)cc2)n(C[C@H](O)C(F)(F)F)c1=O)c1cccc(C(F)(F)F)c1 (single isomer, unassigned) [Example 9]
Human V1a receptor
  IC50: 63 nM
Human V2 receptor
  IC50: 5 nM

## CC(C)(C)OC(=O)NC(CNC(=O)Cn1nc(-c2ccc(Cl)cc2)n(C[C@H](O)C(F)(F)F)c1=O)c1cccc(Cl)c1Cl (single isomer, unassigned) [Example 19]
Human V2 receptor
  IC50: 11 nM

## NC(=O)NC(CNC(=O)Cn1nc(-c2ccc(Cl)cc2)n(C[C@H](O)C(F)(F)F)c1=O)c1ccccc1Cl (single isomer, unassigned) [Example 33]
Human V1a receptor
  IC50: 17 nM
Human V2 receptor
  IC50: 8 nM

## CC(=O)NC(C)(CNC(=O)Cn1nc(-c2ccc(Cl)cc2)n(C[C@H](O)C(F)(F)F)c1=O)c1cccc(C(F)(F)F)c1 (single isomer, unassigned) [Example 39]
Human V1a receptor
  IC50: 25 nM
Human V2 receptor
  IC50: 10 nM

## NC(=O)OC(CNC(=O)Cn1nc(-c2ccc(Cl)cc2)n(C[C@H](O)C(F)(F)F)c1=O)c1ccccc1C(F)(F)F (single isomer, unassigned) [Example 42]
Human V1a receptor
  IC50: 8 nM
Human V2 receptor
  IC50: 3 nM

## NC(=O)OC(CNC(=O)Cn1nc(-c2ccc(Cl)cc2)n(C[C@H](O)C(F)(F)F)c1=O)c1cccc(Cl)c1Cl (single isomer, unassigned) [Example 52]
Human V1a receptor
  IC50: 7 nM
Human V2 receptor
  IC50: 2 nM

## CCNC(=O)OCC(CNC(=O)Cn1nc(-c2ccc(Cl)cc2)n(C[C@H](O)C(F)(F)F)c1=O)c1cccc(C(F)(F)F)c1 (stereo partly drawn) [Example 10, 3-[({3-(4-Chlorophenyl)-5-oxo-4-[(2S)-3,3,3-trifluoro-2-hydroxypropyl]-4,5-dihydro-1H-1,2,4-triazol-1-yl}acetyl)amino]-2-[3-(trifluoromethyl)phenyl]propyl ethylcarbamate]
Human V1a receptor
  IC50: 24 nM
Human V2 receptor
  IC50: 9 nM

## CC(C)(C)OC(=O)NC(CNC(=O)Cn1nc(-c2ccc(Cl)cc2)n(C[C@H](O)C(F)(F)F)c1=O)c1ccccc1C(F)(F)F (stereo partly drawn) [Example 13, tert-Butyl {2-[({3-(4-chlorophenyl)-5-oxo-4-[(2S)-3,3,3-trifluoro-2-hydroxypropyl]-4,5-dihydro-1H-1,2,4-triazol-1-yl}acetyl)amino]-1-[2-(trifluoromethyl)phenyl]ethyl}carbamate]
Human V1a receptor
  IC50: 4 nM
Human V2 receptor
  IC50: 70 nM

## CS(=O)(=O)NC(CNC(=O)Cn1nc(-c2ccc(Cl)cc2)n(C[C@H](O)C(F)(F)F)c1=O)c1ccccc1Cl (stereo partly drawn) [Example 25, N-{2-(2-Chlorophenyl)-2-[(methylsulphonyl)amino]ethyl}-2-{3-(4-chlorophenyl)-5-oxo-4-[(2S)-3,3,3-trifluoro-2-hydroxypropyl]-4,5-dihydro-1H-1,2,4-triazol-1-yl}acetamide]
Human V1a receptor
  IC50: 8 nM
Human V2 receptor
  IC50: 5 nM

## O=CNC(CNC(=O)Cn1nc(-c2ccc(Cl)cc2)n(C[C@H](O)C(F)(F)F)c1=O)c1cccc(C(F)(F)F)c1 (stereo partly drawn) [Example 36, 2-{3-(4-Chlorophenyl)-5-oxo-4-[(2S)-3,3,3-trifluoro-2-hydroxypropyl]-4,5-dihydro-1H-1,2,4-triazol-1-yl}-N-{2-formamido-2-[3-(trifluoromethyl)phenyl]ethyl}acetamide]
Human V1a receptor
  IC50: 19 nM
Human V2 receptor
  IC50: 13 nM

## NC(=O)OC(CNC(=O)Cn1nc(-c2ccc(Cl)cc2)n(C[C@H](O)C(F)(F)F)c1=O)c1ccccc1Cl (stereo partly drawn) [Example 47, 1-(2-Chlorophenyl)-2-[({3-(4-chlorophenyl)-5-oxo-4-[(2S)-3,3,3-trifluoro-2-hydroxypropyl]-4,5-dihydro-1H-1,2,4-triazol-1-yl}acetyl)amino]ethyl carbamate]
Human V1a receptor
  IC50: 5 nM
Human V2 receptor
  IC50: 2 nM

## O=C(Cn1nc(-c2ccc(Cl)cc2)n(C[C@H](O)C(F)(F)F)c1=O)N[C@@H](CO)Cc1cccc(C(F)(F)F)c1 [Example 53, 2-{3-(4-Chlorophenyl)-5-oxo-4-[(2S)-3,3,3-trifluoro-2-hydroxypropyl]-4,5-dihydro-1H-1,2,4-triazol-1-yl}-N-{(2R)-1-hydroxy-3-[3-(trifluoromethyl)phenyl]propan-2-yl}acetamide]
Human V1a receptor
  IC50: 4 nM
Human V2 receptor
  IC50: 15 nM

From patent publication US9180120B2, “Substituted N-phenethyltriazoloneacetamides and use thereof” (Bayer Intellectual Property GmbH, priority 2010, dated 2015)
